Assay results as given in ChEMBL document CHEMBL1129586, “Estrogenic triarylethylene acetic acids: effect of structural variation on estrogen receptor affinity and estrogenic potency and efficacy in MCF-7 cells” (J Med Chem, 1996).
Activity calls are given as the source filed them. The rule behind the calls is not given here.

What follows are molecules tested on MCF7 (assay: Inhibition of MCF-7 cell proliferation). Conditions: Homo sapiens.
Type: functional

**Q.** With CC/C(=C(\c1ccc(O)cc1)c1ccc(CC(=O)O)cc1)c1ccccc1 as the molecule, how does the IC30 read?
**A.** The IC30 was 0.0025 µM.

**Q.** For CC/C(=C(\c1ccccc1)c1ccc(OCC(=O)O)cc1)c1ccccc1, which IC30 is on record?
**A.** The IC30 was 0.02 µM.

**Q.** For CC/C(=C(\c1ccc(C)cc1)c1ccc(OCC(=O)O)cc1)c1ccccc1, which IC30 is on record?
**A.** Its IC30 is 0.013 µM.

**Q.** How did the IC30 turn out when CC/C(=C(\c1ccc(O)cc1)c1ccc(OCC(=O)O)cc1)c1ccccc1 was run?
**A.** Its IC30 is 0.03 µM.

The molecules below were run against Estrogen receptor (Rattus norvegicus, UniProt P06211+Q62986) (assay: not given). Conditions: not given.

**Q.** How did the IC50 turn out when CCC(=C(c1ccc(O)cc1)c1ccc(O)cc1)c1ccc(OCC(=O)O)cc1 was run?
**A.** The IC50 was 750 nM.

**Q.** For CC/C(=C(\c1ccc(O)cc1)c1ccc(CC(=O)O)cc1)c1ccccc1, which IC50 is on record?
**A.** The IC50 was 450 nM.

**Q.** With CC/C(=C(\c1ccccc1)c1ccc(OCC(=O)O)cc1)c1ccccc1 as the molecule, how does the IC50 read?
**A.** The IC50 was 4500 nM.

**Q.** For O=C(O)COc1ccc(C(Cc2ccccc2)c2ccc(O)cc2)cc1 (centres undefined), which IC50 is on record?
**A.** Its IC50 is 900 nM.

**Q.** For CC/C(=C(\c1ccc(C)cc1)c1ccc(OCC(=O)O)cc1)c1ccccc1, which IC50 is on record?
**A.** Its IC50 is 1060 nM.

**Q.** Which IC50 does the source give for CC/C(=C(\c1ccc(O)cc1)c1ccc(OCC(=O)O)cc1)c1ccccc1 here?
**A.** Its IC50 is 9 nM.

These molecules were tested on MCF7 (assay: cells). Conditions: Homo sapiens.
Description: Stimulation of MCF-7 cell proliferation

**Q.** For CCC(=C(c1ccc(O)cc1)c1ccc(O)cc1)c1ccc(OCC(=O)O)cc1, which EC50 is on record?
**A.** The EC50 was 46 nM.

**Q.** Which EC50 does the source give for CC/C(=C(\c1ccc(O)cc1)c1ccc(CC(=O)O)cc1)c1ccccc1 here?
**A.** The EC50 was 42 nM.

**Q.** For CC/C(=C(\c1ccccc1)c1ccc(OCC(=O)O)cc1)c1ccccc1, which EC50 is on record?
**A.** Its EC50 is 300 nM.

**Q.** Which EC50 does the source give for O=C(O)COc1ccc(C(Cc2ccccc2)c2ccc(O)cc2)cc1 (centres undefined) here?
**A.** Its EC50 is 16 nM.

**Q.** For CC/C(=C(\c1ccc(C)cc1)c1ccc(OCC(=O)O)cc1)c1ccccc1, which EC50 is on record?
**A.** Its EC50 is 350 nM.

**Q.** Which EC50 does the source give for CC/C(=C(\c1ccc(O)cc1)c1ccc(OCC(=O)O)cc1)c1ccccc1 here?
**A.** Its EC50 is 5.3 nM.

The molecules below were run on MCF7 (assay: Inhibition of MCF-7 cell proliferation; h=No inhibitory effect). Conditions: Homo sapiens.
Type: functional, cell-based

**Q.** With CCC(=C(c1ccc(O)cc1)c1ccc(O)cc1)c1ccc(OCC(=O)O)cc1 as the molecule, how does the IC30 read?
**A.** The IC30 was “inactive”.

**Q.** How did the IC30 turn out when O=C(O)COc1ccc(C(Cc2ccccc2)c2ccc(O)cc2)cc1 (centres undefined) was run?
**A.** The IC30 was “inactive”.

Tested on: MCF7
Assay: cells
Conditions: Homo sapiens
Remark: another data set of the same source

**Q.** For CCC(=C(c1ccc(O)cc1)c1ccc(O)cc1)c1ccc(OCC(=O)O)cc1, which IC50 is on record?
**A.** The IC50 was 2390 nM.

**Q.** CC/C(=C(\c1ccc(O)cc1)c1ccc(CC(=O)O)cc1)c1ccccc1 was tested. Which IC50 did it give?
**A.** Its IC50 is 58 nM.

**Q.** For CC/C(=C(\c1ccccc1)c1ccc(OCC(=O)O)cc1)c1ccccc1, which IC50 is on record?
**A.** The IC50 was 320 nM.

**Q.** Which IC50 does the source give for O=C(O)COc1ccc(C(Cc2ccccc2)c2ccc(O)cc2)cc1 (centres undefined) here?
**A.** Its IC50 is 600 nM.

**Q.** How did the IC50 turn out when CC/C(=C(\c1ccc(C)cc1)c1ccc(OCC(=O)O)cc1)c1ccccc1 was run?
**A.** The IC50 was 97 nM.

**Q.** With CC/C(=C(\c1ccc(O)cc1)c1ccc(OCC(=O)O)cc1)c1ccccc1 as the molecule, how does the IC50 read?
**A.** Its IC50 is 21 nM.
